Measured values from paper PMC5444705 (Oncotarget, 2017).
Where two headings read alike, the source gives them in different places.

Legend:
HepG2 xenograft tumor = experiment: Anti-tumor efficacy in HepG2 xenograft tumor mouse model; format: in vivo, Balb/C nude mice; conditions: tail vein injection, 4 mg/kg (WCN-21), 25th day after injection
Description: Tumor volume and mouse body weights were recorded during drug administration period. The mice were sacrificed at 25th day after the injection and tumors were collected for histology examination.
(§1) For the efficacy study, 4 × 10^6 HepG2 cells were injected in the front armpit of the Balb/C nude mice. […] The tumor sizes were measured every other day and any death of the mice was recorded. […] TUNEL, Ki67 and hematoxylin and eosin (H&E) staining were performed by using the resected tumor tissue from mice for efficacy study. The tissue sections were examined and photographed with a microscope (Olympus SZX12, Japan) connected to a PC.

HepG2 cells = experiment: MTT assay, HepG2; format: cell-based; conditions: Homo sapiens
Description: (§2) HepG2, Hep3B, Huh7 or L02 cells were seeded in 96-well plates at a density of 5 × 10^3 cells per well. […] After 24 and 48 h of co-incubation, used media were removed and cells were washed twice with PBS. Fresh medium containing 20 μl of MTT ([…]) was added in and cells were cultured for an additional 4 h at 37°C in a 5% CO2incubator. After that, media were removed and 200 μl of DMSO was added in. The optical density value was determined by the microplate reader (Multiskan MK3, Thermo Fisher Scientific, Atlanta, GA, USA) at 492 nm.

[1] = mouse, in vivo, 4 mg/kg
Description: as §1, with “To determine the toxicity of WND and WNP, we collected tissues from the mice used in efficacy study for histological analysis. […] For” for “For”

Huh7 cells = experiment: MTT assay, Huh7; format: cell-based; conditions: Homo sapiens
Description: as §2

Hep3B cells = experiment: MTT assay, Hep3B; format: cell-based; conditions: Homo sapiens
Description: as §2

L02 cells = experiment: MTT assay, L02; format: cell-based; conditions: Homo sapiens
Description: as §2

CC[C@@]1(O)C(=O)OCc2c1cc1n(c2=O)Cc2cc3c(CN(C)C)c(O)ccc3nc2-1 [Topotecan]
Tumor size at 25th day (HepG2 xenograft tumor): 837 mm^3
IC50 (HepG2 cells; HepG2, 24 h): 1.59 ± 0.0206 µM
IC50 (HepG2 cells; HepG2, 48 h): 0.285 ± 0.009 µM
Body weight change [1]: significant body weight loss
Histological analysis of hearts, livers, spleens, lungs and kidneys [1]: myocardial fiber fracture and cardiocytes necrosis in hearts, inflammatory infiltration in livers, atrophied white pulp in spleens and disorganization of renal corpuscles in kidneys
IC50 (Huh7 cells; Huh 7, 24 h): 0.5 ± 0.069 µM
IC50 (Huh7 cells; Huh 7, 48 h): 0.117 ± 0.048 µM
IC50 (Hep3B cells; 24 h): 0.462 ± 0.02 µM
IC50 (Hep3B cells; 48 h): 0.112 ± 0.0024 µM
IC50 (L02 cells; L02, 24 or 48 h, time not specified, read-out: IC50 in L02 cells): > 0.5 µM
IC50 (L02 cells; L02, 24 h, MTT, read-out: IC50): > 0.5 µM
IC50 (L02 cells; L02, 48 h, MTT, read-out: IC50): > 0.5 µM
